The text below walks through data of article PMC8297402, “Trifluoromethyl-substituted 3,5-bis(arylidene)-4-piperidones as potential anti-hepatoma and anti-inflammation agents by inhibiting NF-кB activation” (Journal of Enzyme Inhibition and Medicinal Chemistry, 2021).

One data set concerns HepG2. The data set can be described thus: Modified MTT cytotoxicity assay, HepG2. It is filed as cell-based, Human. Particulars: for IC50: Homo sapiens, HepG2, 24 h, MTT, 24 h incubation, three replicates, read-out: Cytotoxicity IC50 HepG2; for SI (selectivity index) HepG2: quotient of IC50 for normal (LO2) and malignant (HepG2) cells. The procedure:
(§1) The HepG2, SMMC-7721, and LO2 cell lines were maintained at 37 °C, 5% humidified CO2, and 95% atmosphere. Dulbecco's Modified Eagle (DMEM) medium containing 10% foetal bovine serum (FBS) was used for culturing the HepG2 cell line; meanwhile, Roswell Park Memorial Institute (RPMI) 1640 medium containing 10% FBS was used for culturing other cell lines (SMMC-7721, LO2). The HepG2, SMMC-7721 and LO2 cells were seeded in a 96-well plate in 200 μL of medium per well at a density of approximately 8 × 10^3 cells/well and cultured for 24 h, followed by incubation in an incubator of indicated compounds with successive concentrations (10, 5, 2.5, 1.25, 0.625, 0.3125 μg/mL) for 24 h. In the control group, cells were only cultured with culture media. After the media were removed, 20 μL of MTT (5 mg/mL) was added, then cells were incubated for 4 h at 37 °C. […] GraphPad Prism 5 software was used to calculate their IC50 values. Every IC50 value was the average of three replicates. Doxorubicin (DOX) and curcumin were used as positive controls.

In another data set the test system is SMMC-7721. In words: Modified MTT cytotoxicity assay, SMMC-7721. The data set is classed as cell-based, Human. Particulars: for IC50: Homo sapiens, SMMC-7721, 24 h, MTT, 24 h incubation, three replicates; for SI (selectivity index) SMMC-7721: quotient of IC50 for normal (LO2) and malignant (SMMC-7721) cells. The protocol: as §1
The nature of data set [1]: Modified MTT cytotoxicity assay, normal heptical cell line LO2. The data set is classed as cell-based, human. Particulars: human, LO2 cells (normal hepatic cell line), 24 h incubation. The procedure: as §1
The test system of the next data set is RAW264.7 cell. The data set can be described thus: MTT toxicity pre-experiment on RAW264.7 macrophagocyte. Conditions: Mus musculus, RAW264.7, BAPs 5 μM, read-out: Survival rate RAW264.7 cell. The data set is classed as cell-based, mouse. The procedure:
Lipopolysaccharide (LPS) is a key constituent of Gram-negative bacterial endotoxin, which is used to induce an inflammatory response in corresponding inflammatory cells. TNF-α and IL-6 are two kinds of representative pro-inflammatory factors, which produced by LPS-stimulated RAW264.7 macrophage. In our pre-experiments, the toxicity against RAW264.7 macrophagocyte for all title compounds was tested by the MTT assay, and the results were listed in Table 2. The survival rates were above 80% for all BAPs (4-30) at the concentration of 5.0 μM.

For the next data set, the system named is TNF-α. The data set can be described thus: ELISA of TNF-α release in LPS-stimulated RAW264.7 cells. It is filed as cell-based, mouse. Particulars: Mus musculus, RAW264.7, BAPs (5 μM) + LPS (1 μg/mL), RAW264.7, ELISA; read-out: Inhibition rate TNF-α. The protocol:
(§2) We tested by inhibiting the secretion of TNF-α and IL-6 to better evaluated the anti-inflammatory effects of BAPs. […] Under the stimulation of LPS (1.0 μg/mL) with RAW264.7 cells, the release of TNF-α and IL-6 was detected. Besides, after treated with BAPs (5.0 μM) and LPS (1.0 μg/mL), the release of TNF-α and IL-6 was measured with an ELISA kit (eBioScience, San Diego, California), respectively. In general terms, pyrrolidine dithiocarbamate (PDTC, 30 μM) or BAP (5.0 μM) was used to pretreat cells for 2 h, respectively. Then, LPS (1.0 μg/mL) was added and cells were incubated for another 22 h. Finally, the culture media were centrifuged at 1000 rpm for 10 min, and the expression levels of TNF-α and IL-6 were determined by ELISA.

A further data set concerns IL-6. In words: ELISA of IL-6 release in LPS-stimulated RAW264.7 cells. It is filed as cell-based, mouse. Particulars: Mus musculus, RAW264.7, BAPs (5 μM) + LPS (1 μg/mL), RAW264.7, ELISA; read-out: Inhibition rate IL-6. The procedure:
as §2

A further data set relates to A549. The data set can be described thus: Modified MTT cytotoxicity assay, A549. Conditions: for IC50: Homo sapiens, A549, read-out: Cytotoxicity IC50 A549, MTT, non-small cell lung cancer cell line; for SI (selectivity index) A549: quotient of IC50 for normal (HHL-5) and malignant (A549) cells.
The subject of the next data set is A2780. In words: Modified MTT cytotoxicity assay, A2780. Conditions: for IC50: Homo sapiens, A2780, read-out: Cytotoxicity IC50 A2780, MTT, ovarian cancer cell line; for SI (selectivity index) A2780: quotient of IC50 for normal (HHL-5) and malignant (A2780) cells.
Data set [2] in a line: Modified MTT cytotoxicity assay, normal heptical cell line HHL-5. Particulars: human, HHL-5 cells (normal hepatic cell line).
Description: (§3) To further verify the anti-tumour activity, one human non-small cell lung cancer cell line (A549), one human ovarian cancer cell line (A2780), and one human normal heptical cell line (HHL-5) were screened by BAPs (4–30) using a modified MTT assay (Supporting Information). DOX and curcumin were selected as positive controls.
(§4) The optical density (OD) value of each well was measured on a
(§5) multi-well plate reader (TECAN, Mӓnnedorf, Switzerland ) at 570 nm.
(§6) Every IC 50 value was the average of three replicates.
(§7) Doxorubicin (DOX) and Curcumin were used as positive controls.

Description for A2780: as §3, §4, §5, §6, §7

`O=C1/C(=C/c2ccccc2C(F)(F)F)CN(S(=O)(=O)c2ccc([N+](=O)[O-])cc2)C/C1=C\c1ccccc1C(F)(F)F` [BAP 6] came in with a melting point of 204 to 206 °C. In the data set on HepG2, the IC50 stood at 4.3 ± 0.2 µM and the “SI (selectivity index) HepG2” value was 3.7. In the data set on SMMC-7721, half-maximal inhibition (IC50) required 10.4 ± 0.2 µM and the “SI (selectivity index) SMMC-7721” value was found to be 1.5. The molecule also gave an IC50 at 24 h in data set [1] of 15.7 ± 1.3 µM. In addition, in the data set with RAW264.7 cell, the viability at 5 µM was determined as 85.7 ± 3.1%. Moreover, the inhibition at 5 µM in the data set with TNF-α amounted to 61 ± 2.7%. Also, in the data set on IL-6, the inhibition at 5 µM was 68.2 ± 3%. Further, in the data set with A549, the IC50 was 7.58 ± 1.76 µM and the “SI (selectivity index) A549” value stood at 1.0. Also, in the data set on A2780, the IC50 turned out to be 28.8 ± 5.33 µM and the “SI (selectivity index) A2780” value came out at 0.3.
For the molecule `O=C1/C(=C/c2ccccc2C(F)(F)F)CN(S(=O)(=O)c2ccc(Br)cc2)C/C1=C\c1ccccc1C(F)(F)F` [BAP 10], the melting point fell in the range of 197 to 199 °C. Besides, in the data set on HepG2, the IC50 was 14.7 ± 0.1 µM and the “SI (selectivity index) HepG2” value is 1.2. Besides, in the data set on SMMC-7721, it took 4.7 ± 0.1 µM to reach half-maximal inhibition (IC50) and the “SI (selectivity index) SMMC-7721” value is 3.6. Besides, half-maximal inhibition in data set [1] (IC50 at 24 h) required 17 ± 0.4 µM. For the same molecule, the viability at 5 µM with RAW264.7 cell was found to be 83.8 ± 2.9%. For the same molecule, in the data set with TNF-α, the inhibition at 5 µM was determined as 59.2 ± 2.8%. Further, the inhibition at 5 µM with IL-6 stood at 67.8 ± 3.2%. For the same molecule, in the data set on A549, the concentration for half-maximal inhibition (IC50) amounted to 5.01 ± 0.45 µM and the “SI (selectivity index) A549” value stood at 2.9. In the data set with A2780, the IC50 amounted to 2.34 ± 0.39 µM and the “SI (selectivity index) A2780” value stood at 6.2. For the same molecule, half-maximal inhibition in [2] (IC50) required 14.5 ± 0.1 µM.
As for `O=C1/C(=C/c2cccc(C(F)(F)F)c2)CN(S(=O)(=O)c2ccccc2)C/C1=C\c1cccc(C(F)(F)F)c1` [BAP 13], the melting point was in the range of 151 to 153 °C. Further, in the data set with HepG2, the IC50 was 3.5 ± 0.1 µM and the “SI (selectivity index) HepG2” value came out at 3.1. Also, in the data set with SMMC-7721, the concentration for half-maximal inhibition (IC50) was found to be 5.7 ± 0.1 µM and the “SI (selectivity index) SMMC-7721” value was 1.8. Moreover, 10.1 ± 0.4 µM corresponded to half-maximal inhibition in data set [1] (IC50 at 24 h). Besides, in the data set with RAW264.7 cell, the viability at 5 µM came to 82.5 ± 1.3%. In addition, in the data set on TNF-α, the inhibition at 5 µM came to 56.3 ± 2.1%. In addition, the inhibition at 5 µM with IL-6 was found to be 48.9 ± 2.9%. For the same molecule, in the data set with A549, the IC50 was found to be 0.25 ± 0.01 µM and the “SI (selectivity index) A549” value came to 11.6. In the data set with A2780, the IC50 worked out at 0.16 ± 0.01 µM and the “SI (selectivity index) A2780” value amounted to 18.1. The molecule further returned an IC50 in data set [2] of 2.9 ± 0.2 µM.
In turn, `O=C1/C(=C/c2cccc(C(F)(F)F)c2)CN(S(=O)(=O)c2ccc([N+](=O)[O-])cc2)C/C1=C\c1cccc(C(F)(F)F)c1` [BAP 15] yielded a melting point of 196 to 198 °C. In the data set on HepG2, the IC50 stood at 2.7 ± 0.1 µM and the “SI (selectivity index) HepG2” value was 4.7. In addition, in the data set with SMMC-7721, the IC50 was found to be 5 ± 0.1 µM and the “SI (selectivity index) SMMC-7721” value is reported as 2.5. The midpoint of inhibition in [1], the IC50 at 24 h, lay at 12.6 ± 0.1 µM. In the data set with RAW264.7 cell, the viability at 5 µM was 81.9 ± 1.2%. Further, the inhibition at 5 µM in the data set on TNF-α was found to be 62.1 ± 0.7%. Further, in the data set on IL-6, the inhibition at 5 µM stood at 60.8 ± 4.2%. Further, in the data set with A549, the IC50 came to 0.13 ± 0.02 µM and the “SI (selectivity index) A549” value was determined as 40.0. In addition, in the data set with A2780, the IC50 worked out at 0.14 ± 0.02 µM and the “SI (selectivity index) A2780” value was 37.1. For the same molecule, the IC50 in data set [2] was determined as 5.2 ± 0.3 µM.
